From patent US20070259354A1, “OPTIMIZED TRPM8 NUCLEIC ACID SEQUENCES AND THEIR USE IN CELL BASED ASSAYS AND TEST KITS TO IDENTIFY TRPM8 MODULATORS” (Senomyx, Inc., priority 2005, published 2007)
Where two headings read alike, the source gives them in different places.

Experiments:
[1] = biological target: T1, rat TRPM8 (Rattus norvegicus, UniProt Q8R455); assay: Voltage clamp electrophysiology in Xenopus oocytes expressing rat TRPM8 (OpusXpress); format: cell-based; settings: for peak agonist-induced currents: 4-6 independent oocytes; for peak agonist-induced currents / desensitization of agonist-induced currents: one day post-injection; for desensitization of agonist-induced currents: continued presence of agonist; for specific activation of rat TRPM8 expressed in oocytes: no responses in uninjected control oocytes
T1 construct: In the assays exemplified herein, cells which express the full-length TRPM8 polypeptide are used in high throughput assays; expressed in transfected cells; host or cells: Xenopus oocytes microinjected with rat TRPM8 cRNA
T1 sequence (Q8R455 whole entry): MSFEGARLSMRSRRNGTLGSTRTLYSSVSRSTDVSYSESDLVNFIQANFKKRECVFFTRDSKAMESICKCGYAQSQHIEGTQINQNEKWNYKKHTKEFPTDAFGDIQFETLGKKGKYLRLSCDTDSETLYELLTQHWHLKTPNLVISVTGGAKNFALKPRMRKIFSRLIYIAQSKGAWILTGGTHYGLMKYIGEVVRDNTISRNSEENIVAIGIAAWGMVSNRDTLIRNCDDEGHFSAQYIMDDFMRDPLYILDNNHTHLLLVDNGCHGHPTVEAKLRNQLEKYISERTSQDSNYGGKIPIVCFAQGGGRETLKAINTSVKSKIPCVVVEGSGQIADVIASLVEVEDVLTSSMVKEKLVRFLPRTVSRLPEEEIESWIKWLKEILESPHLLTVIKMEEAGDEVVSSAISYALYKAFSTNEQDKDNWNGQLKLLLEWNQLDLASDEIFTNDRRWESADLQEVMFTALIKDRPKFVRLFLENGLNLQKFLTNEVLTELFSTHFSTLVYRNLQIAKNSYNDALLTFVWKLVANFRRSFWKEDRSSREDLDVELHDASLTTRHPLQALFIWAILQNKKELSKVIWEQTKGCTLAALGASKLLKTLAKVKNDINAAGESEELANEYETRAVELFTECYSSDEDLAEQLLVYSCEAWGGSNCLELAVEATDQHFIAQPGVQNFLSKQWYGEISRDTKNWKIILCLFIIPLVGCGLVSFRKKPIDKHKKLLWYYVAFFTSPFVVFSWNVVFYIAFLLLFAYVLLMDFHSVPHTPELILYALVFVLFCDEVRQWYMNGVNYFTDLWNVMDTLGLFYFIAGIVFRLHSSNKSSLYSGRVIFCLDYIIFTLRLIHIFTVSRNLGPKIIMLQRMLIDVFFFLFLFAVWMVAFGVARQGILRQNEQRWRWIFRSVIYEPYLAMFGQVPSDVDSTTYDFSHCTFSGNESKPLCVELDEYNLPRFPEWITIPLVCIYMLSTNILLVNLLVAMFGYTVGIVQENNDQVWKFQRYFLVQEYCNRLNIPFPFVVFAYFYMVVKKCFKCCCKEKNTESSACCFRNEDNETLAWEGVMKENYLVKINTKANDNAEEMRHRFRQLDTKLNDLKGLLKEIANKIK
Procedure: Xenopus oocytes are microinjected with a TRPM8 nucleic acid sequence according to the invention.
The microinjected oocytes are voltage-clamped at around 60 mV using the OpusXpress 600A one day post-injection and treated with either buffer (control) or a potential or known TRPM8 modulator contained in same buffer at a fixed concentration or over a range of different concentrations (dose-escalation).
The current is measured for said buffer-treated or putative TRPM8 modulator-treated oocytes over a specific time period. Additionally, the current response is measured for oocytes treated with the same buffer which are not injected with a TRPM8 nucleic acid sequence (negative control).
The current response for said oocytes is compared in order to determine the effect (if any) of said potential TRPM8 modulator compound on TRPM8 activity and whether said effect is dose-specific.
In this experiment an electrophysiological assay was conducted using oocytes that express rat TRPM8. Specifically, oocytes were microinjected with 10 ng rat TRPM8 cRNA and were voltage-clamped at ˜60 mV using the OpusXpress 600A one day post-injection and treated with buffer and menthol (left traces) or icilin (right traces).
Oocytes were microinjected with 10 ng rat TRPM8 […] and voltage-clamped at ˜60 mV using the OpusXpress 6000A one day post-injection and then treated with the compounds shown in the FIG. 6. In the Figure, peak agonist-induced currents are summarized for 4-6 independent oocytes.
In these experiments, oocytes were again injected with 2 ng rat TRPM8 cRNA (as shown in left panel of FIG. 7) or uninjected (right panel) and currents were measured from ˜80 mV to 100 mV (in 20 mV increments) in the presence of buffer (control; green curves) or 100 μM menthol (red curves) four days post-injection. The blue curves in FIG. 7 depict menthol-specific currents obtained by subtracting control (green) from menthol (red) curves.
In this experiment, oocytes were again microinjected with 10 ng rat TRPM8 cRNA, voltage-clamped at ˜60 mV and currents measured 2-3 days post-injection.

[2] = biological target: T1, rat TRPM8; assay: Fluorimetric calcium imaging (FLIPR), HEK293 cells transiently transfected with rat TRPM8; format: cell-based; settings: chilled stimulus compared with warmer stimulus
Procedure: HEK-293 cells (about 50-70% confluency) contained in 10 cm dishes are transfected with 5 μg of TRPM8 DNA and pcDNA3 and 2 μg of RFP plasmids using TransH293.
After 24 hours, the cells are split into 384-well plates at ˜50,000 cells/well.
At 48 hours post-transfection the cells are loaded with 4 μM Fluo-3-AM 3 AM in HBSS for 30 minutes at 37° C.
The cells are then washed twice within HBSS containing 2.5 mM Probenicid and returned to 37° C. for 15 minutes.
Compound plates are prepared in HBSS at twice the final concentration and kept at 37° C. to insure that rTRPM8 is not activated by a decrease in ambient temperature during stimulation (TRPM8 is activated by temperatures<22° C.).
HEK293 cells are transfected with a plasmid encoding the rat TRPM8 cDNA (in pcDNA3.1) and are seeded into 384-well plates. 48 hours later, cells are loaded with Fluo-3-AM. Cells are then stimulated with various stimuli as shown in FIG. 2 and fluorescence intensity in each well measured using a Fluorimetric Imaging Plate Reader (FLIPR). […]
HEK293 cells transfected with a plasmid encoding rat TRPM8 cDNA contained in pcDNA3.1 were seeded into 384-well plates. […] Cells were then stimulated with the stimuli shown in FIG. 3 and fluorescence intensity in each well measured using a Fluorimetric Imaging Plate Reader (FLIPR). […]

[3] = biological target: T1, rat TRPM8; settings: 22-24° C., McKemy et al. Nature 416:52-58 (2002); read-out: reported EC50 in oocytes; cited from earlier work
[4] = Human taste test, cooling intensity; format: in vivo; settings: five human panelists, two trials, Tukey's HSD 5% risk level
Procedure: In this experiment the cooling effect of a putative coolant, SID 391254, identified using the subject assays was analyzed in human taste tests. Particularly, the cooling intensity for three test samples was tested in five human volunteer panelists in two trials. […] The tests were conducted in booths with the data recorded using Compusense software. Additionally, these experiments further included the administration of WS-3, a known coolant (positive control).
For both samples containing the known or the putative cooling compound (WS-3 and SID 391254 respectively), these compounds were contained in low sodium buffer (LSB) and 0.1% ethanol.
This experiment compared the cooling effect of another putative coolant compound (SID 10135651) identified using the described assays. […] As with the prior example, significant differences between the known and putative coolant compound vis-à-vis the control were calculated using Tukey's HSD (5% risk level). […] These tests were again conducted in booths with the data recorded using Compusense software.
The coolant effect of another putative cooling compound (SID 7292725) identified using the subject screening assays was tested in human taste tests. Again cooling intensity scores were determined based on results in 5 human taste panelists in two trials. Significant differences were again calculated using Tukey's HSD (5% risk level).

Compound | peak agonist-induced currents [1] | desensitization of agonist-induced currents [1] | specific activation of rat TRPM8 expressed in oocytes [1] | potency of chilled versus warmer agent at activating TRPM8 [2] | current/voltage (I/V) curve of menthol-specific currents ([1]; 100 μM menthol, 2 ng cRNA, four days post-injection) | EC50 ([1]; oocytes, 10 ng rat TRPM8 cRNA, 19.5° C.) [µM] | EC50 [3] [µM] | cooling intensity compared with negative control (LSB and 0.1% ethanol) [4]
O=C1NC(c2cccc([N+](=O)[O-])c2)=CCN1c1ccccc1O [icilin] | large peak currents | completely desensitize | specifically activate | more potent |  |  |  | 
CC12CCC(CC1)C(C)(C)O2 [eucalyptol] | small peak currents |  |  |  |  |  |  | 
C [methane] | small peak currents |  |  |  |  |  |  | 
CC1CCC(C(C)C)C(O)C1 (centres unmarked) [menthol] | large peak currents | partially-desensitize | specifically activate | more potent | outward rectification | 29.6 | 67 | 
CCNC(=O)C1CC(C)CCC1C(C)C (centres unmarked) [WS-3] |  |  |  |  |  |  |  | substantially higher cooling intensity
